Measured values reported in publication PMC11040648, “Highly tunable bimane-based fluorescent probes: design, synthesis, and application as a selective amyloid binding dye” (Chemical Science, 2024).

Biological target: T1, tau (fibrils) (Homo sapiens, UniProt P10636)
T1 construct: gene MAPT; tau amyloid fibrils
Assay: fluorescence turn-on with […] fibrils ([…] lower than αS), emission maximum […] nm
Format: binding

T1 sequence (P10636 1-441 isoform P10636-8): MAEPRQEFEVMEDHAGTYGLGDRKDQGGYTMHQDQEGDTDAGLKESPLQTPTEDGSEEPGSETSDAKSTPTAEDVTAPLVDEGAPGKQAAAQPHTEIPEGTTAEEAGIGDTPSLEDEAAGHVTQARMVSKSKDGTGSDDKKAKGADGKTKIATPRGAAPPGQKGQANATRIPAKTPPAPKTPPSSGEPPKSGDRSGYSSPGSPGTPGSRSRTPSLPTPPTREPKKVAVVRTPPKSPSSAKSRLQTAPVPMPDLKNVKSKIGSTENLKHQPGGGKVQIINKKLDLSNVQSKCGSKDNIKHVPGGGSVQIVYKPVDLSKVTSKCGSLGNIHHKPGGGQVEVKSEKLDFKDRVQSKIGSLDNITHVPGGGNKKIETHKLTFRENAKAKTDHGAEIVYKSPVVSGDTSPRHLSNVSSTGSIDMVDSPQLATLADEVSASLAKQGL

Cc1c(C)n2c(/C=C/c3ccc(N(C)C)cc3)c(C)c(=O)n2c1=O [5k]
fluorescence turn-on with 10 μM fibrils (2.8-fold lower than αS), emission maxim: although 5k binds to both αS and tau, it has a greater fluorescence activation
